Experimental data: US12037350B2, “Compositions and methods for the prevention and/or treatment of mitochondrial disease, including Friedreich's ataxia” (Stealth BioTherapeutics Inc., priority 2020, dated 2024)

Assays:
[1] = system: frataxin deficient fibroblasts (GM03665) from Friedreich's ataxia patient; assay: Frataxin Deficient Fibroblast Viability Assay (BSO Assay); format: cell-based; conditions: for protection against BSO induced cell death (in words): BSO Assay, text statement; for EC50: Homo sapiens, Fibroblast, FA patient fibroblasts pretreated with compound, BSO 10 mM, MTT after 48 hrs
Experimental: Example 12: Frataxin Deficient Fibroblast Viability Assay (the “BSO Assay”)
This Example was used to evaluate the various new compositions for their potential efficacy in the treatment of Friedreich's Ataxia (FA or FRDA)—substantially as described in the above cited Reference (Matthias et al.).
The stock solutions of the test articles (and control compounds) were prepared in dimethyl sulfoxide (DMSO at 10 mM), Working stock solutions (2 times concentrated) were prepared on the day of the experiment in respective cell culture medium to be used for assay (detailed medium description below). A listing of compounds used as test articles in this Example 12 are found in Table 1, below.
A patient derived frataxin deficient fibroblast cell line was obtained from Coriell Institute. More specifically, the following cell lines/DNA samples were obtained from the NIGMS Human Genetic Cell Repository at the Coriell Institute for Medical Research: GM03665. To evaluate importance of various growth conditions on cell susceptibility to BSO toxicity cells were grown on:
MEM (Sigma-Aldrich) 15% Fetal Bovine Serum (FBS) without growth factors;
MEM (Sigma-Aldrich) 15% FBS with growth factors (Catalogue number 100-18B, Recombinant Human FGF-basic (154 a.a.) and catalogue number AF-100-15, Animal-Free Recombinant Human EGF from Peprotech);
MEM199/MEM EBS (Bioconcept Ltd.) 10% FBS, insulin 10 μg/ml, L-glutamine 2 mM with growth factors (Catalogue number 100-18B, Recombinant Human FGF-basic (154 a.a.) and catalogue number AF-100-15, Animal-Free Recombinant Human EGF from Peprotech).
To conduct an experiment, fibroblast cells (from all growth conditions) were seeded (100 μL (cells 3×10^3/well) on 96-well plates in MEM199/MEM EBS medium 10% FBS, insulin 10 μg/mL, L-glutamine 2 mM with growth factors and allowed to grow on plate for 24 hrs. After 24 hrs., media was removed and then test compounds of interest were added (100 μL, 2 times concentrated stock) to 96-well plates (end DM80 concentration not exceeding 0.5%) and incubated for 24 hours. Then L-buthionine-sulfoximine (BSO, from Acros Organics, Cat. No. 235520010) was added (100 μL, 2 times concentrated stock) at end concentrations ranging from 1 to 10 mM. Both test compounds and BSO were dissolved in MEM199/MEM EBS medium 10% FBS, insulin 10 μg/mL, L-glutamine 2 mM with growth factors. Cell viability was monitored and either after 24- or 48-hours cell viability was assayed by MTT (Thiazolyl blue tetrazolium bromide) assay. For the MTT assay, media was removed and 100 μL of MTT 1 mg/mL was added, incubated for 2 hours at +37° C., then medium was removed and 100 μL of isopropanol added to dissolve sediment. Absorption was measured at 570 (OD570) and 650 (QD650) nm wavelengths. Control cells (vehicle instead of BSO and compound) and vehicle control (with BSO, but vehicle instead of test compound) were treated in the same manner as ceils with BSO and compound. All cell media contained penicillin and streptomycin 100 U/mL each.
Absorption readouts were processed as follows: ValueΔ=ValueOD570−ValueOD650 and the obtained values were used to calculate cell viability as % of control cell (i.e., no BSO, no compound, just vehicle) viability.
Except as otherwise indicated in Table 1, all samples were run in at least 3 replicates for test compounds and at least 8 replicates for controls (i.e., both control (no BSO, no compound) and vehicle control (i.e., with BSO, no compound). Exact N per data points are indicated in the figures/table legends. Results for the compounds (test articles and controls) tested are listed in Table 1, below.
This is a cell-based assay measuring cytotoxicity which results from oxidative stress subsequent to depletion of endogenous glutathione defense mechanisms. The cells were primary Friedreich Ataxia (FA) patient fibroblasts which were incubated for 48 hrs. in BSO, an inhibitor of gamma glutamyl synthetase, an enzyme required for glutathione production. […]

[2] = system: GM03665 cells (fibroblasts from a subject with Friedreich's ataxia); assay: RSL-3 Toxicity Assay (RSL-3 Assay); format: cell-based, human; conditions: for EC50: Homo sapiens, Fibroblast
Source text: Example 14: RSL-3 Toxicity Assay (RSL-3 Assay)
This assay has been adapted from: Hinman, A., Holst, C. R., Latham, J. C., Bruegger, J. J., Ulas, G., McCusker, K. P., Amagata, A., Davis, D., Hoff, K. G., Kahn-Kirby, A. H., Kim, V., Kosaka, Y., Lee, E., Malone, S. A., Mei, J. J., Richards, S. J., Rivera, V., Miller, G., Trimmer, J. K., Shrader, W. D., “Vitamin E hydroquinone is an endogenous regulator of ferroptosis via redox control of 15-lipoxygenase”, (2018) PLoS ONE 13(8): e0201369.
In brief, GM03665 cells (Coriell Institute) were seeded in 96-well plates (Sarstedt) in DMEM cell culture media containing 10% Fetal Bovine serum and 1% Penicillin-Streptomycin (Pen-Strep) antibiotic mix at the amount of 2×10^4/mL (100 μL or 2×10^3 cells per well). Cells were left to rest overnight at 37° C. in a humidified atmosphere with 5% CO2 to allow attachment of the cells to the culture plate. Test compounds were prepared as DMSO stocks (10 mM) and were serially diluted in cell culture media to obtain 2× working solutions. Cell media was discarded and replaced by 50 μL of test compound solutions or cell media with vehicle for control wells. Within 15 minutes, 2× working solution (4 μM) of 1S,3R-RSL-3 (CAS #1219810-16-8, Sigma-Aldrich) (diluted from 5 mM DMSO stock in cell culture media) was added. Final reaction volume was 100 μL and final DMSO concentration in reaction was kept below 0.2% (v/v) and equal in all wells. Final RSL-3 concentration was 2 μM and test compound final concentrations in reaction were up to 1000 nM. After 24 hours of incubation cell viability was assessed by MTT test. MTT (Sigma-Aldrich) solution 1 mg/mL in IX PBS (pH=7.4) was prepared 1 hour before the assay and filtered through Filtropur S 0.2 filters (Sarstedt). Cell media with test compounds was discarded and 100 μL of MTT solution was added to cells. The plates were incubated for 2 hours at +37° C. Thereafter, the MTT solution was removed and 100 μL of isopropanol was added to dissolve sediment. Absorption at 570 and 650 nm was measured using Hidex Sense microplate reader.
Compounds A and B and idebenone were not examined in this assay. The data presented in Table 1 indicates omaveloxolone was not active in this assay but that vatiquinone was active.
Discussion—Both BSO and RSL-3 are frequently utilized to induce the regulated cell death pathway known as ferroptosis. Ferroptosis is thought to require the joint activity of iron catalyzed oxidative stress and lipid peroxidation and has been described in cell and animal models of multiple neurodegenerative diseases, including Friedreich's Ataxia, Huntington Disease, Parkinson Disease and Alzheimer's Disease. […] Of note, the results for Compounds C-I and K were favorable with respect to inhibition of ferroptotic cell death when either BSO or RSL3 were used as initiating stimulus, differentiating these compounds from omaveloxolone and idebenone.

[3] = GM03665 cells, RSL-3 2 μM, 24 hours, MTT

With `COC1=C(OC)C(=O)C(CCCCCCCCCC(F)(F)F)=C(C)C1=O` [Compound C, 2,3-dimethoxy-5-methyl-6-(10,10,10-trifluorodecyl)cyclohexa-2,5-diene-1,4-dione] the “protection against BSO induced cell death (in words)” value [1] was “best of the test compounds”, the EC50 [1] was 128 nM and the EC50 [2, 3] was 110 nM.
In the case of `COC1=C(OC)C(=O)C(CCCCF)=C(C)C1=O` [Compound J, 2-(4-fluorobutyl)-5,6-dimethoxy-3-methylcyclohexa-2,5-diene-1,4-dione], the “protection against BSO induced cell death (in words)” value [1] is reported as “not that effective”, the EC50 [1] is reported as over 1000 nM and the “protection against RSL-3 toxicity (in words)” value [2] is reported as “essentially inactive”. The EC50 [2, 3] was over 1000 nM.
In the case of `CC1(C)CC[C@]2(NC(=O)C(C)(F)F)CC[C@]3(C)[C@H](C(=O)C=C4[C@@]5(C)C=C(C#N)C(=O)C(C)(C)[C@@H]5CC[C@]43C)[C@@H]2C1` [Omaveloxolone, reference compound], the “protection against BSO induced cell death (in words)” value [1] is reported as “roughly equivalent in protection as compared with Vatiquinone”, the “protection against BSO induced cell death (in words)” value ([1]; listed as omaveloxolone) is reported as “displayed anti-ferroptotic activity” and the EC50 [1] is reported as 149 nM. For the same compound, the “protection against RSL-3 toxicity (in words)” value [2] was “not active” and the “RSL-3 Assay EC50” value [2, 3] was “Inactive”.
